# Paper PMC4774911, “Biochemical Screening of Five Protein Kinases from Plasmodium falciparum against 14,000 Cell-Active Compounds” (PLoS ONE, 2016)
# Several values for one entry are separate records, joined by “and”; a condition that tells them apart may be missing. Equal entries are not always repeated.
# Legend:
# Experiment in all cases: biochemical
# Set-up in all cases: endogenous in cells; host or cells: K562 cell extract; species or system K562 (extract); replicate k of n = 2 (each experiment ID is one independent experiment; two experiment IDs per compound)
# Conditions in all cases: read-out: KDapp
# NLK = target: T1, NLK (Homo sapiens, UniProt Q9UBE8)
# T1 sequence (Q9UBE8 1-527): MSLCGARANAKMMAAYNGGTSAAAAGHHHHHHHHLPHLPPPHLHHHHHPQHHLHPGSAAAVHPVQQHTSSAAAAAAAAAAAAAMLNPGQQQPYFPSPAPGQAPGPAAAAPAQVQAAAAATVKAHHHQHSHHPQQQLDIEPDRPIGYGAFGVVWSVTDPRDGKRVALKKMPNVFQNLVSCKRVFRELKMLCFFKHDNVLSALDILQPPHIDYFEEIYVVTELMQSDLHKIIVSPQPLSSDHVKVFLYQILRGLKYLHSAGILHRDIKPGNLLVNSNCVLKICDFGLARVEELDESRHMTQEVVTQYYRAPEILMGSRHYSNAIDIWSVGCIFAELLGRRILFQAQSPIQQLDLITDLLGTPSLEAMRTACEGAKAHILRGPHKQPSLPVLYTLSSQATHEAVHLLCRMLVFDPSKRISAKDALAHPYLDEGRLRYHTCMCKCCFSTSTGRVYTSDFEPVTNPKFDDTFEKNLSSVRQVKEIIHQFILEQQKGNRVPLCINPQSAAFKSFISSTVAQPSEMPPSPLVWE
# PHKG2 = target: T2, PHKG2 (Homo sapiens, UniProt P15735)
# T2 sequence (P15735 1-406): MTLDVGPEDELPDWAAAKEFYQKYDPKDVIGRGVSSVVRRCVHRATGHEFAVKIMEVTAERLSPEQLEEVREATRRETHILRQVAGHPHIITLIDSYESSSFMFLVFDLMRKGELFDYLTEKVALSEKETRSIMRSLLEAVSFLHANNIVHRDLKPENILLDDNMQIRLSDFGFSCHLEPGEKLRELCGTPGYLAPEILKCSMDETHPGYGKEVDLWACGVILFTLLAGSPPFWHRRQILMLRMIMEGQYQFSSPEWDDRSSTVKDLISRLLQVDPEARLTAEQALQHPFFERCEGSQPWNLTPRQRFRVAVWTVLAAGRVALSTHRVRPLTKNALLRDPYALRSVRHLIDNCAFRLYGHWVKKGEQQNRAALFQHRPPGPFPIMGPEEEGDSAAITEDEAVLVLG
# PIM2 = PIM2 (Homo sapiens, UniProt Q9P1W9)
# Chain of PIM2 (Q9P1W9 whole entry): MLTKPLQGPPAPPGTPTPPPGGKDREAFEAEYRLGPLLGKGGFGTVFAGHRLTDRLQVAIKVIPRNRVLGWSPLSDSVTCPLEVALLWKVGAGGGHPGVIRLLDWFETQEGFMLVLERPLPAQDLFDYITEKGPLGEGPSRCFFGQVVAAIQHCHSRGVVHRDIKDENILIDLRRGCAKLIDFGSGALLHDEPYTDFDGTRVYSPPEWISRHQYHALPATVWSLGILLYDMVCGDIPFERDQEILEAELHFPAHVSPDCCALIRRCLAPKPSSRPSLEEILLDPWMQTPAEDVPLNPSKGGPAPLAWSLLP
# NEK9 = target: T3, NEK9 (Homo sapiens, UniProt Q8TD19)
# T3 sequence (Q8TD19 1-979): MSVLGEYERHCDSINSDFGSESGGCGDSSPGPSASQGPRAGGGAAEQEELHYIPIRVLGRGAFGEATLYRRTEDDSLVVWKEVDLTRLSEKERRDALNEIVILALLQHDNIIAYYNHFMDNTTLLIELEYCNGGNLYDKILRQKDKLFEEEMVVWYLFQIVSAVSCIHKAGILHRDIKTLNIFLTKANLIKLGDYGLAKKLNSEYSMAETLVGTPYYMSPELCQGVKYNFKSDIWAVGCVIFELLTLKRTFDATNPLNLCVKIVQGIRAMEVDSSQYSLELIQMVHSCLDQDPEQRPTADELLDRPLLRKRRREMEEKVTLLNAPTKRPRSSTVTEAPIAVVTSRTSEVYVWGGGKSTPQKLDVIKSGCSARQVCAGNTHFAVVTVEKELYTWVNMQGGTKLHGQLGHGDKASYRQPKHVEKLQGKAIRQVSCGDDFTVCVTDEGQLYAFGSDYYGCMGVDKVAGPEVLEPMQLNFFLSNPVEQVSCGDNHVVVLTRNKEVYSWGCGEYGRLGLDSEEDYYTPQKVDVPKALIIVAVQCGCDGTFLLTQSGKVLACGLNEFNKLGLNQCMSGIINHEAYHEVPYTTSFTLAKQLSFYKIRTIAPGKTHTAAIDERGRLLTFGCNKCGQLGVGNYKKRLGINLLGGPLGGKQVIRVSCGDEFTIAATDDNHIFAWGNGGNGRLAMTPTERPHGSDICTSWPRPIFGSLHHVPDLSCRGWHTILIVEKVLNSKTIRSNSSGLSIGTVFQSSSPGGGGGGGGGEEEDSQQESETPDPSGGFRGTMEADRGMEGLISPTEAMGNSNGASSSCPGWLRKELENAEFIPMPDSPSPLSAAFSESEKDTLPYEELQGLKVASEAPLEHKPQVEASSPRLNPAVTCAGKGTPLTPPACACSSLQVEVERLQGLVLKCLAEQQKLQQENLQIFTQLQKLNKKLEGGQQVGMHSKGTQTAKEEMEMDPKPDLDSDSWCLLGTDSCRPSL
# MAST3 = MAST3 (Homo sapiens, UniProt O60307)
# Chain of MAST3 (O60307 whole entry): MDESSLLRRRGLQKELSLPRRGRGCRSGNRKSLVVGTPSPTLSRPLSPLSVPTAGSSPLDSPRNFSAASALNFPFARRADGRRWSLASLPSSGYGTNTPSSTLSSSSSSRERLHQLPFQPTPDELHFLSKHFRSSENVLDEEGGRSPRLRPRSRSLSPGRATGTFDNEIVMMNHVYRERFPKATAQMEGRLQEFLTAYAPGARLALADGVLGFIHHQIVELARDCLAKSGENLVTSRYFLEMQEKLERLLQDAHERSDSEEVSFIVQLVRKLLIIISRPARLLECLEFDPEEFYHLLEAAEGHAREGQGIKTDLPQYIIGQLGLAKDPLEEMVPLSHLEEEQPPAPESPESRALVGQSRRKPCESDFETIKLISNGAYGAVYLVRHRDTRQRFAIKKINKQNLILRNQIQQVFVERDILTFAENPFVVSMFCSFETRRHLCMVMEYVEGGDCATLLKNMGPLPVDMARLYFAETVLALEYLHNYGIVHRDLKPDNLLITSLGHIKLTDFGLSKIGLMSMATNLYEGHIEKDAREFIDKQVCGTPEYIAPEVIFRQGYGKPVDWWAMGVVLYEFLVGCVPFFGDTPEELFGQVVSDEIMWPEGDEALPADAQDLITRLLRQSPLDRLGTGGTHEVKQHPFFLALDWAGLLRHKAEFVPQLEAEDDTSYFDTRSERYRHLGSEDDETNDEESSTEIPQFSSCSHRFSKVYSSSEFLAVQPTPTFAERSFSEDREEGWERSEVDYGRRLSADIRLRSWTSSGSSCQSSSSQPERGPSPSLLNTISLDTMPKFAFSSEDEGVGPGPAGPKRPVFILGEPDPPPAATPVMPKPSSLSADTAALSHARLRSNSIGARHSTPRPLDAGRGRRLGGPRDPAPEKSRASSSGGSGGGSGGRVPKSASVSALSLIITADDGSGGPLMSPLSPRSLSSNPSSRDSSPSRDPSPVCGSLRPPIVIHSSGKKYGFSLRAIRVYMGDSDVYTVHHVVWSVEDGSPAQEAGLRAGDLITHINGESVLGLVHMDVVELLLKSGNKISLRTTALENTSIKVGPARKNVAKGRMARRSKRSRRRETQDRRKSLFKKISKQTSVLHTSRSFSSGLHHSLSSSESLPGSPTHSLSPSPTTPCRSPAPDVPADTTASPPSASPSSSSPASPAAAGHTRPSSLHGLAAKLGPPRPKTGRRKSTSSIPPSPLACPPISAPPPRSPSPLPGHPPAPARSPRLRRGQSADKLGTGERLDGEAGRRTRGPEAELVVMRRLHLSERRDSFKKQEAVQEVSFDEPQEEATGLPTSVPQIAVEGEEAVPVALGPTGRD
structure (smiles),measurement,setting,value
CN1CCN(c2ccc(Nc3ncc(C#N)c(Nc4ccccc4C(N)=O)n3)cc2)CC1.Cl [TCMDC-134116],Kd,NLK,0.95 µM and 0.89 µM
same,Kd,PHKG2,2.25 µM
same,Kd,PIM2,2.97 µM
same,Kd,NEK9,0.396 µM and 0.299 µM
same,Kd,MAST3,0.0731 µM
